Entries after “also recorded” stand apart in the source; their conditions may differ.
Assays:
[1] = test system: medulloblastoma in Math1-Cre/Ptch1^C/C animals; test: In vivo tumor growth in tumor bearing Math1-Cre/Ptch1^C/C animals; parameters: species or system mouse
Protocol: Tumor bearing animals were treated with MK886 or DMSO by IP injection. After 1 month treatment, tumors were harvested. Tumor size was reduced by 30% with the treatment of MK886 (Panel A). After the treatment, tumors were sectioned for immunostaining for Nestin (Panels B and D), and Ki67 (Panels C and E). In the control (Panels B and C), tumor cells extensively express Nestin (Panel B) and all the tumor cells were Ki67 positive (Panel C).
Next, the efficacy of MK886 in inhibiting in vivo tumor growth was evaluated. Math1-Cre/Ptch1^C/C animals at postnatal day 21 were treated daily with 30 μg MK886 by intraperitoneal injection. Three weeks later, tumor volume was evaluated by MRI imaging.
Nestin expression and Ki67 was compared in tumor sections by immunohistochemical analysis.

[2] = test system: tumor cells isolated from Math1-Cre/Ptch1^C/C animals (MB cells); test: Tumor cell proliferation in vitro by Ki67 immunostaining; assay type: cell-based, mouse; settings: 48 hrs treatment, 3 μM, vs DMSO (FIG. 5)
Protocol: 48 hrs later, the percentage of proliferating cells was calculated after immunostaining the culture with antibody against Ki67.
Tumor cells isolated from the mouse model were treated with MK886 or DMSO as a control. At 48 hrs after treatment, tumor cells were analyzed for proliferation by immunostaining for Ki67.
DMSO was used as a negative control.

[3] = test system: GBM cell lines T98G, U-87MG and U251; test: GBM cell viability by Alamar blue assay; assay type: cell-based; settings: various concentrations, 48 hrs (FIG. 8)
Protocol: Three GBM cell lines (T98G, U87-MG and U251) were plated and treated with MK886 and Montelukast at various concentrations for 48 hrs. Cell viability was measured by Alamar blue assay. Data represent the average of triplicate+SD. *p<0.05
To test the efficacy of leukotriene inhibitors in preventing glioblastoma cell proliferation, three GBM cell lines: T98G, U-87MG and U251 (purchased from an in-house cell culture facility) were utilized. The cell lines were treated with MK886 and Montelukast at different concentrations. After treatment for 48 hrs, cell survival and growth was analyzed by Alamar blue assay (Al-Nasiry, S et al. (2007) Hum. Reprod. 22:1304-9).

[4] = test system: tumor cells isolated from Math1-Cre/Ptch1^C/C animals (MB cells); test: Nestin expression in cultured medulloblastoma tumor cells (immunostaining); assay type: cell-based, mouse
Protocol: (§1) GNPs isolated from Ptch1^C/C animals were plated and infected with lentivirus carrying Cre recombinase to delete Ptch1. At 48 hrs following the infection, GNPs were stained for Cre (green) and Nestin (red) in control (Panel A) and in the presence of 20 ng/ml leukotriene (Panel B). MB cells were plated in vitro for 48 hrs, and stained for Nestin (red) in control (Panel C) and in the presence of 5 μM MK886. (Panel D).
Tumor cells isolated from Math1-Cre/Ptch1^C/C animals, were treated with 3 μM DMSO (Panels A and B) or MK886 (Panels C and D) in vitro. After 48 hrs treatment, tumor cells were harvested for immunostaining with antibodies against Nestin (red) and Ki67 (green) (Panels B and D). The same cultures were counterstained by DAPI (blue) to show the total cell number (Panels A and B).
To further examine whether Leukotriene synthesis is required for Nestin expression in tumor cells, tumor cells were isolated from the mouse model, which has already highly expresses Nestin in vivo, even in the culture at 48 hrs following plating.
It was next investigated whether leukotriene inhibition can prevent tumor cell proliferation. […] At 48 hrs after treatment, tumor cells were analyzed for proliferation by immunostaining for Ki67. […]

Ptch1-deficient GNPs = test: Induction of Nestin expression in Ptch1-deficient GNPs (immunocytochemistry); assay type: cell-based, mouse; settings: 20 ng/ml leukotriene, 48 hrs after Cre lentivirus infection
Protocol: as §1
Since Nestin is a cytoskeleton protein, it was examined whether leukotriene could induce Nestin expression in medulloblastoma cells. For this purpose, cerebellar GNPs were isolated from Ptch1^C/C animals, and Patched1 (Ptch1) was deleted from GNPs by using a lentivirus with Cre recombinase. At 48 hrs following the infection, cells were harvested to analyze Nestin expression by immunocytochemistry. […] The presence of Nestin mRNA and protein has been confirmed by RT-PCR and western blotting (data not shown).

Q: Which results are given for `CC(C)c1ccc2c(c1)c(SC(C)(C)C)c(CC(C)(C)C(=O)[O-])n2Cc1ccc(Cl)cc1.[Na+]` [MK886, 1-[(4-Chlorophenyl)methyl]-3-[(1,1-dimethylethyl)thio]-α,α-dimethyl-5-(1-methylethyl)-1H-Indole-2-propanoic acid]?
A: decrease of tumor size in volume (MRI imaging) ([1]; 30 μg MK886 daily intraperitoneal from postnatal day 21, three weeks, vs DMSO): over 30%; tumor size reduction ([1]; IP injection, after 1 month treatment, tumors harvested (FIG. 7 Panel A)): 30%; Nestin expression in tumor sections after treatment ([1]; immunostaining of tumor sections after MK886 treatment vs DMSO): dramatically reduced; also recorded: almost no Nestin is present; number of Ki67 positive cells in tumor ([1]; tumor sections after MK886 treatment compared with control): decreased dramatically; tumor cells still positive for Ki67 ([1]; tumor sections after MK886 treatment, control all cells Ki67 positive (FIG. 7 Panel E)): around 30%; proliferation among tumor cells (Ki67) [2]: prevented the proliferation; viability of GBM cells [3]: effectively reduce the viability; Nestin expression in tumor cells ([4]; 48 hrs treatment, 3 μM, vs DMSO (FIG. 5)): markedly inhibited; Nestin expression among tumor cells ([4]; MB cells plated in vitro 48 hrs, 5 μM MK886 (FIG. 4)): dramatically inhibited

Q: With `CC(C)(O)c1ccccc1CC[C@@H](SCC1(CC(=O)O)CC1)c1cccc(/C=C/c2ccc3ccc(Cl)cc3n2)c1` [Montelukast, (R,E)-2-(1-((1-(3-(2-(7-chloroquinolin-2-yl)vinyl)phenyl)-3-(2-(2-hydroxypropan-2-yl)phenyl)propylthio)methyl)cyclopropyl)acetic acid] as the compound, how does the “viability of GBM cells” value [3] read?
A: effectively reduce the viability

Q: Which “Nestin protein among Ptch1-deficient GNPs” value (Ptch1-deficient GNPs) does the source give for leukotriene here?
A: high level of Nestin protein was detected
